Measured values as given in patent US5004593A (Mayo Foundation for Medical Education and Research, priority 1989, dated 1991).
Entries after “also recorded” stand apart in the source; their conditions may differ. Counter-ions that a name gives are not always drawn.

Tests used:
[1] = man; cited from earlier work
[2] = i.v., dogs, one specific HMM hydrochloride preparation; cited from earlier work
[3] = Phase I clinical trial, toxicity of intravenous HMM; type: in vivo, human (cancer patients)
Experimental: (§1) Eighteen patients were treated on the one day every four weeks schedule and 28 patients were treated on the daily ×5 four weeks schedule. Tumors included lung, colorectal, gastric, breast, ovarian, renal, bladder, parotide, hepatic, small bowel, thyroid, fibrosarcoma and fibroblastic osteosarcoma. Forty-five of 47 patients had received prior chemotherapy and/or radiotherapy. All patients had histologic or cytologic confirmation of unresectable cancer for which there was no conventional means of therapy that offered reasonable hope of cure or of significant palliation. All patients were ambulatory and in a reasonable state of nutrition. Patients were required to have WBC count ≥4,000/mm^2, platelet count ≥130,000 m^2, hemoglobin ≥10 g/dl, serum creatinine ≤1.5 mg/dl, ECOG performance status <3, fasting serum triglycerides ≤500 mg/dl. Patients were excluded if they presented with uncontrolled infections, persistent (daily) nausea and/or vomiting, significant chronic obstructive pulmonary disease, any neurologic impairment, major surgery within the proceeding 30 days, radiation to >15% of the bone marrow within 30 days or radiation to total area >30% of bone marrow at any time.
(§2) Tests done prior to entry into study included a history, physical examination and tumor measurement whenever possible, WBC count, hemoglobin, platelet count, chest x-ray, electrocardiogram, electroencephalogram, urine analysis, triglycerides, SGOT, and serum creatinine. Between courses of treatment, the hematology group was checked twice weekly and the hemoglobin, SGOT and serum creatinine once weekly. Triglycerides were determined before and after each HMM treatment. Patients were entered in groups of three at each dose level. New patients were entered at a higher dose level only after the three patients treated at the previous level had been observed for a minimum of three weeks, counting from the last day of treatment. Patients not having significant toxicity at a given dose level were retreated at the next higher dose level but a minimum of three patients who never received HMM were entered at each escalation on each schedule. Dose levels on the daily ×5 schedule were […]. Dose increments for the one-day schedule were 360, 540, 675, 750, 844, and 1,000 mg/m^2.
(§3) Unit dose amounts of drug, Intralipid 10%®, and diluents were changed as dose levels of HMM increased throughout the study. At doses which will be relevant for Phase II evaluation of the parenteral formulation, the following drug preparation scheme was employed. The Mayo Comprehensive Cancer Center Pharmacy weighed 500 mg portions of bulk HMM into sterile vials. HMM was dissolved in 0.1 N hydrochloric acid (sterile HCl for parenteral administration, USP) by adding 27.50 ml of the 0.1 N HCl to each 500 mg vial. The concentration of this solution was 18.2 mg HMM.HCl/ml. The volume of the HMM.HCl solution to be drawn up for each patient was determined by dividing the patient dose level by 18.2 (e.g., for a 750 mg dose, 750 mg divided by 18.2 mg/ml =41.2 ml of the HMM.HCl solution withdrawn from the vial). A 0.22 micron filter assembly was fitted to the syringe containing the appropriate HMM.HCl solution. The volume was filtered into a 500 ml empty sterile and sealed vial. Thus, the correct patient dose was placed in the evacuated vial. An equal volume of air was withdrawn from the sealed vial to maintain vacuum.
(§4) The amount of Intralipid 10%® to be added was determined by dividing the dose by 5.1 (e.g. 750 divided by 5.1=147 ml). The appropriate volume of Intralipid 10%® was added to the 500 ml vial containing the HMM.HCl solution. […]

[4] = HMM concentration in formulation before and after filtration (% theoretical) and precipitation; type: physicochemical; settings: for % Theoretical HMM Concentration, After Filter: 0.45μ filter
Experimental: as §3
The amount of Intralipid 10%® to be added was determined by dividing the dose by 5.1 (e.g. 750 divided by 5.1=147 ml). The appropriate volume of Intralipid 10%® was added to the 500 ml vial containing the HMM.HCl solution. Finally, the volume of sodium bicarbonate (sodium bicarbonate for parenteral injection, USP, 1 mEq/ml) was determined by the formula of 0.1 ml sodium bicarbonate for every 20 mg of HMM to be administered (e.g., 750 mg divided by 20=37.5×0.1 ml =3.75 ml sodium bicarbonate). This provided approximately a 4 mg/ml solution of HMM-Intralipid 10%®. A vented tubing set was added to the bottle with the patient's dose. A particulate filter (4.5 micron) was attached to an 18 gauge needle and the filter and needle were placed on the tubing to fill the 500 ml empty bag. The drug was administered at a rate of 2 ml/min or 8 mg/min. Thus, infusion time was lengthened as dose levels increased maintaining a constant rate of drug administration. Fifty (50) ml of normal saline was infused following completion of the HMM infusion.
Details of drug preparation are described in the Methods section while a summary of the formulation procedure is shown in Table 1, below.
This modification of the initial formulation reported in Cancer Treat. Rep., 66, 1579 (1982) to first dissolve the HMM in aqueous HCl, eliminated the use of a toxic organic solvent (ethanol or dimethylacetamide) while ensuring complete and uniform mixing of drug with Intralipid 10%®. Assessment of the formulated product was determined at each step of the procedure by measuring HMM concentrations before and after filtration through 0.45 micron filters (Intralipid 10%® average particle size is approximately 0.40 micron). […] HMM concentrations following filtration of such mixtures yielded <5% of the theoretical HMM concentration.

[5] = oral administration, man; cited from earlier work
refractory tumors = assay: Phase I clinical trial, tumor response to intravenous HMM; type: in vivo, human (cancer patients); settings: i.v.
Experimental: as §1, with “Patients were excluded if they presented with uncontrolled infections, persistent (daily) nausea and/or vomiting, significant chronic obstructive pulmonary disease, any neurologic impairment, major surgery within the proceeding 30 days, radiation to >15% of the bone marrow within 30 days or radiation to total area >30% of bone marrow at any time.” left out
Tests done prior to entry into study included a history, physical examination and tumor measurement whenever possible, WBC count, hemoglobin, platelet count, chest x-ray, electrocardiogram, electroencephalogram, urine analysis, triglycerides, SGOT, and serum creatinine. […] Triglycerides were determined before and after each HMM treatment. […]

[6] = Phase I plasma and urine pharmacokinetics of intravenous HMM in Intralipid 10% (GC assay); type: in vivo, human (cancer patients)
Experimental: as §1, §2, §3, §4

[7] = oral administration, rabbits; due to extensive first-pass metabolism rather than poor absorption; cited from earlier work
[8] = clinical; cited from earlier work
[9] = cited from earlier work
[10] = system: ovarian adenocarcinoma, metastatic small cell carcinoma of the lung, metastatic breast cancer and refractory lymphoma; settings: single agent clinical trials; cited from earlier work
[11] = i.v., one-day or daily ×5 schedules
[12] = after NaHCO3 (1 mEq/ml) 0.1 ml:5 ml, ca. 4 mg/ml
[13] = dissolved in 0.1 N HCl, ca. 20 mg/ml
[14] = 540 mg/m^2 i.v., three-compartment open model

In the case of `CN(C)c1nc(N(C)C)nc(N(C)C)n1` [HMM hydrochloride], the “local irritation and phlebitis” value [1] is given as “severe local irritation and phlebitis” and the “tolerability, intravenous” value [2] is given as “well-tolerated”.

With `CN(C)c1nc(N(C)C)nc(N(C)C)n1` [HMM, 2,4,6-tris(dimethylamino)-1,3,5-triazine] the “white blood cell counts” value ([3]; all patients) was ≥ 3,000 /μl, the maximally tolerated dose ([3]; daily ×5 schedule, i.v.) was ~630 mg/m^2 /day and the maximum-tolerated doses ([3]; five days in a row every four weeks) was 500-600 mg/m^2 /day. The myelosuppression ([3]; i.v.) was “minimal myelosuppression”, the “peripheral neuropathy compared with oral administration” value ([3]; i.v. aqueous fat emulsion vs same amount orally) was “reduced from the level observed when the same amount of HMM is administered orally” and the “CNS toxicity, peripheral neuropathy” value [3, 11] was “no CNS toxicity, specifically peripheral neuropathy, was noted in any patients”. For the same compound, the dose-limiting toxicity [3, 11] was “nausea and vomiting”, the “platelet nadir below 100,000/μl (one patient)” value ([3]; one-day administration of 540 mg/m^2) was 75,000 /μl and the hematologic toxicities ([3]; one-day or five-day regimen) was “no significant hematologic toxicities”. The maximally tolerated dose ([3]; one-day schedule, i.v.) was “approximately 850 mg/m^2”, the “% Theoretical HMM Concentration, After Filter” value ([4]; after Intralipid 10% added 4 ml:1 ml, ca. 4 mg/ml) was 100% and the “% Theoretical HMM Concentration, Before Filter” value [4, 12] was 100%. For the same compound, the “% Theoretical HMM Concentration, After Filter” value [4, 12] was 100%, the “% Theoretical HMM Concentration, Before Filter” value [4, 13] was 100% and the “% Theoretical HMM Concentration, After Filter” value [4, 13] was 100%. For the same compound, the “HMM concentration in the final filtered product, % of theoretical” value ([4]; final product, 0.45 micron filter) was 90-95%, the “plasma concentrations of parent drug” value [5] was “Low and variable plasma concentrations of parent drug” and the tumor responses (refractory tumors) was “No objective responses; also recorded: no tumor responses were observed”. The “steady state volume of distribution” value [6, 14] was 460 1/m^2, the “steady state volume of distribution (Vdss)” value [6, 14] was 460 l/m^2 and the terminal half-life [6, 14] was 10.4 h. For the same compound, the “total body clearance (ClTB)” value [6, 14] was 0.75 1/min/m^2, the “accumulation during five-day treatment” value ([6]; 945 mg/m^2, daily ×5) was “disproportionate accumulation” and the “observed vs predicted (simulated) 24 hour trough plasma concentrations” value ([6]; 945 mg/m^2, daily ×5) was “significantly greater than predicted”. The “accumulation during five-day treatment” value ([6]; 945 mg/m^2, daily ×5, listed as hexamethylmelamine) was “possible saturation of parent drug elimination”, the “observed vs predicted (simulated) 24 hour trough plasma concentrations” value ([6]; 506 and 632 mg/m^2, daily ×5) was “in agreement with predicted values” and the “Twenty-four hour urinary recoveries of parent drug” value ([6]; 24 h, all patients) was “less than one”. For the same compound, the “HMM 24 hours following each dose” value ([6]; daily ×5 schedule, plasma) was “detected”, the “change of 24 hour drug concentration over days” value ([6]; daily ×5 schedule, plasma) was “increased each day” and the Cmax ([6]; human, iv, 540 mg/m^2 one-day schedule, five patients, plasma, read-out: Peak concentrations of HMM at the end of infusion) was 2550 to 9350 ng/mL. For the same compound, the half-life ([6]; human, plasma, iv, 540 mg/m^2 i.v., three-compartment open model, read-out: terminal half-life (converted)) was 10.4 h, the dose excreted at 24 h ([6]; human, urine, iv, 24 h, read-out: 24 hour urinary recovery of parent drug) was < 1% and the “plasma levels / plasma AUC compared with oral administration” value ([6]; i.v. vs oral) was “Substantially higher plasma AUC values”. The “consistency of plasma concentrations compared with oral” value ([6]; i.v. vs oral (D'Incalci)) was “more consistent plasma concentrations”, the demethylated urinary metabolites ([6]; urine) was “Demethylated urinary metabolites including penta-, tetra-, tri-, and di-methylmelamines were detected in urine” and the bioavailability [7] was “poor bioavailability”. The delayed toxicity [8] was “moderate anemia, thrombocytopenia, leukopenia, and a peripheral neuropathy”, the “main acute adverse effects” value [8] was “Nausea and vomiting” and the “peripheral neuropathy, symptoms” value [8] was “parethesias, hypesthesias, motor weakness, and other sensory alterations”. For the same compound, the “solubility in water and nontoxic solvents” value [9] was “very limited solubility in water and nontoxic solvents” and the active against cancers [10] was “active against a number of cancers including ovarian adenocarcinoma, metastatic small cell carcinoma of the lung, metastatic breast cancer and refractory lymphoma”.
